# Where “and” joins values, the source holds several entries; their conditions need not be identical. Identical values can stand only once. Entries after “also recorded” stand apart in the source; their conditions may differ.
# How the values were obtained:
# [1] = test system: primary human tumor cells; assay: Short-term cultured primary human tumor cells, growth and apoptosis; assay type: cell-based; conditions: 200 ng/ml; 3 days culture; 10% serum
# Excerpt: Because cell lines might be more susceptible to growth inhibition and apoptosis, the effects of MA on short-term cultured human tumor cells were investigated. The cells were obtained from biopsied specimens and immediately cultured (primary cultures). The results were similar to the results with tumor cell lines. […] FIG. 3, Panels A and B are representative results with primary breast and prostate carcinomas respectively. These pro-apoptotic effects of MA on human tumor cells were with 10% serum rather than the lower concentrations sometimes used to make cells more susceptible to apoptosis.
# More extensive studies of primary human tumor cells were carried out utilizing confocal microscopy.
# With the exception of the kidney carcinoma, which was a biopsy sample direct from the tumor, the samples were from pleural effusions which developed after metastasis to the lung. The breast, prostate, and colon carcinomas were freshly obtained and immediately cultured, whereas the lung and kidney carcinomas went through 22 and 18 passes respectively before they were used in these studies. All cells were examined after 3 days culture in the presence or absence of MA (200 ng/ml) or other treatments. […]
# [2] = test system: human carcinoma and sarcoma cells (PC3, KS Y-1); assay: Xenotransplanted human tumors in immunodeficient mice; assay type: in vivo
# Experimental: In the first set of experiments, MA was tested against tumors formed by xenotransplantation of various human carcinoma and sarcoma cells in immunodeficient mice. […] […] Three different synthetic forms of MA were used: full length (MAS3) and the previously described MAS1 and MAS2 (Panel C).
# [3] = test system: spontaneous fibrosarcomas; assay: Spontaneous fibrosarcomas in FVB/N mice; assay type: in vivo; conditions: treatment for 2 weeks
# Excerpt: As shown, MA killed a wide variety of human tumor cells in vitro and in vivo killed xenotransplanted human tumors in immune deficient mice. We wanted to be certain that the in vivo results would not be limited to immune deficient mice. […] Therefore, we tested the effects of MA on: • spontaneous fibrosarcomas which developed in three older FVB/N mice; and • spontaneous breast carcinomas which developed in three older Sprague-Dawley rats.
# The tumors were recognized and treated after different stages of development. Samples of the tumor cells were grown in short-term culture and when treated with MA underwent rapid apoptosis.
# [4] = test system: Lewis lung (LL) carcinoma cells; assay: Pro-apoptotic effect on cultured Lewis lung carcinoma cells; assay type: cell-based, mouse; conditions: same dose range as cultured human tumor cells
# Experimental: B16 melanoma and Lewis lung (LL) carcinoma cells were first shown to be susceptible to the pro-apoptotic effects of MA (FIG. 6, Panels C and D) at the same dose range used with cultured human tumor cells. The tumor cells grown in standard culture conditions were used to generate metastatic cancers in pathogen-free 6-8 week old C57/BL mice (Charles River). In one set of experiments, the animals were treated with MAS1 or MAS2 at two doses, 0.1 ug or 1.0 ug either in a pre-treatment protocol (two subcutaneous inoculations 24 and 48 hrs before transplanting the tumor cells).
# [5] = Lethally irradiated rats and mice; conditions: for survival: treated at time of radiation, 3×/week for 4 weeks
# Experimental: In order to determine in vivo relevance of the prohematopoietic effects of MA treated rats and mice under several conditions of bone marrow suppression. First, the effects of native MA and pMA and of the synthetic 15-mer MAS1 were treated for their capacity to reduce or prevent the effects of lethal doses of gamma irradiation. […] MA, pMA, MAS1, and various control polypeptides were given 48 and 24 hrs before, during, or 24 hrs after radiation. The animals treated prior to radiation received either 100 ng vs. 1 ug (rats) or 50 ng vs. 500 ng (mice) as 2 subcutaneous injections.
# It is not yet possible to determine the precise molar dose of pMA because of less certainty on its full-length sequence.
# To ascertain that the MA effect did promote hematopoiesis in these animals we examined the bone marrow for cellularity and colony formation and determined peripheral blood counts.
# [6] = test system: human primitive hematopoietic stem cells; assay: Long term cultures (LTC-IC, stroma-free) of CD34+, CD38− cells from human BMMC; assay type: cell-based
# Experimental: In the human system, a long-term culture-initiating assay (LTC-IC) can be used to detect cells that can generate myeloid clonogenic cells (CFC/colony forming cells) in long-term cultures for a minimum of 5 weeks. Bone marrow stromal was produced by culturing 107 fresh BM-MNC in a T25 flash for at least 2 weeks in 5 mL stromal medium; 12.5% horse [HS] and 12.5% fetal calf serum [FCS]; both from hyclone [Logan, Utah], Iscove's modified Dulbecco's medium [IMDM, GIBCO-BRL], 2-mercaptoethanol [Sigma, st. Louis, Mo.], 10^−6 mol/L hydrocortisone [Sigma] and penicillin/streptomycine.
# One or 2 days before co-cultures, bone marrow stroma was irradiated with 15Gy and plated at 7×10^3/cm^2 in 24-well plates to form pre-established stromal layers for the long-term cultures. Limiting dilution was 1 to 1000 CD34+ bone marrow/cord blood cells and equivalent aliquots, i.e., limiting dilutions of the cells grown in long-term cultures stroma-free cultures after 2 to 20 weeks were seeded on top of the irradiated bone marrow stroma in culture medium containing IMDM, 12.5% HS, 12.5% FCS, 2-mercptoethanol, and 10^−6 mon-hydrocortisone for 5 weeks LTC-IC assay period. Non-adherent cells were removed from the cultures, combined with the corresponding trypsinized adherent cells, washed and assayed for colony forming units (CFU-Cs) in methylcellulose medium containing 1.3% methylcellulose (Fluka Chemilka Biochemika, buck\hs, Switzerland), 30% FCS, EPO (3 U/ml), IL-3 (20 ng/ml), G-CSF (20 ng/ml), GM-CSF (20 ng/ml) and KL (c-kit, 50 ng/ml). These cultures were incubated at 37° C. and colonies were scored 2 to 3 weeks later. LTC-IC enumeration was based on the number of CFU-C scored in the limiting assays [LDA] and another technique.
# Stroma-free long-term cultures were performed as follows. 2 to 10×10^3 CD34+/CD34^−CD38^− from bone marrow/CB/PBMC cells were cultured in quadrutriplicate flat bottomed 24 well plates in 1 ml to of IMDM supplemented with 10% FCS and the following cytokines: IL-3 (10 ng/ml), IL-6 (10 ng/ml), KL [c-kit 50 ng/ml, FL (50 ng/ml) and TPO (10 U/ml), which added, alone or in combination of two or more factors, to each series of microwells twice a week. The wells were grown at 37° C. and share a number of features with in vivo murine long-term repopulating cells. These include assay for cobblestone areas colony forming cells (CAFC), high proliferative potentials colony-forming cells (HPP-CFC), CFU-GEMM, CFU-B1 (blast colony forming units).
# [7] = LTC stroma free after 3 mos, n = 3
sequence,measurement,setting,value
VVCNYRDVRFESIRLPGCPRGVNPVVSYAVALSCQ [MA],growth inhibition and apoptosis of primary human tumor cells,[1],inhibited growth and induced apoptosis; also recorded: Rapid induction of apoptosis
same,tumor regression,[2]; 300-500 ng/day (about 100-200 pmoles) for 2 to 3 weeks,complete tumor regression
same,effect on xenotransplanted tumor (qualitative),[2]; controls at equivalent and higher molar concentrations,marked tumor regression; also recorded: KS tumor abolished
same,inhibition of tumor growth in vivo,"[2]; mouse, in vivo",60-100%
same,blood vessel formation / angiogenesis,[2]; thin sections of the tumors,reduction in blood vessel formation
same,tumor outcome,[3],complete abolishment of the tumor in two of three animals; also recorded: Partial regression was observed in one animal
same,susceptibility to pro-apoptotic effects,[4],susceptible
same,survival,"[5]; higher dose, over 100 days",100%
same,gastrointestinal distress,[5]; in vivo,little or no gastrointestinal distress
same,survival,[5]; lowest doses,80%
same,relative survival,"[5]; pretreated, higher dose",survived longest
same,BFU-e,[6]; [7],161 ± 8
same,CFU-GM,[6]; [7],198 ± 11
same,CFU-Mixed,[6]; [7],13 ± 3
same,T-CFC,[6]; [7],199 ± 10
same,CFU-GM: % of CD14,[6]; culture 3,27%
same,CFU-GM: % of CD68,[6]; culture 3,22%
same,CD34+ cells,[6]; culture 3 (LTC stroma free treated with MA),77.71%
same,T colonies Rx MA: CD3+/CD4+,"[6]; for 1, 2, and 3 (respectively)",38% and 28% and 46%
same,T colonies Rx MA: CD3+/CD8+,"[6]; for 1, 2, and 3 (respectively)",32% and 29% and 49%

# — patent US9175077B2, “Nucleic acids encoding biologically active polypeptides derived from a novel early stage pregnancy factor designated maternin (MA)” (NOBEL BIOSCIENCES LLC, priority 1999, dated 2015)
